Results published in patent publication US6083932A, “Pharmaceutical compositions derived from ginseng and methods of treatment using same” (CV Technologies Inc., priority 1998, dated 2000).

Key:
Assay type in all cases: biochemical
Settings in all cases: 10^-5 M
noradrenaline uptake = noradrenaline uptake in hypothalamus slices
Description: (§1) We have also investigated the effects of HT1001 on noradrenaline, dopamine and 5-hydroxytryptamine reuptake and monamine oxidase A and B activity in vitro. When compared to amphetamine, HT1001 has little effect on noradrenaline or dopamine uptake. For example, at 10^-4 M (assuming a molecular weight of 900 for HT1001) HT1001 inhibits noradrenaline uptake in hypothalamus slices 3.0% whereas amphetamine at 10^-5 M inhibits uptake by 83%. […] None of these effects are dramatic.

dopamine uptake = dopamine uptake in striatal slices
Description: as §1

[1] = test system: 5-hydroxytryptamine uptake; experiment: 5-hydroxytryptamine uptake in striatal slices
Description: as §1

CC(N)Cc1ccccc1 (stereo not drawn) [amphetamine]
inhibition of noradrenaline uptake (noradrenaline uptake): 83% | inhibition of dopamine uptake (dopamine uptake): 92.4% | inhibition of 5-hydroxytryptamine uptake [1]: 94%
